Data on one molecule can be found in patent US20240139026A1, “Ophthalmic Lenses And Methods For Correcting, Slowing, Reducing, And/Or Controlling The Progression Of Myopia In Conjunction With Use Of Atropine Or Related Compounds” (Brien Holden Vision Institute Limited, priority 2020, published 2024).

The subject of data set [1] is myopic eye of an individual. The data set can be described thus: Spherical aberration of combined spectacle lens and eye system with Atropine-enlarged pupil. The data set is classed as in vivo. The conditions noted are these: -2.00 D myope; pupillary diameter increase from about 3 mm to about 6 mm with use of Atropine. The text has this: FIG. 1A illustrates a schematic plot of pupil diameters resulting from use of Atropine, a widely used muscarinic receptor antagonist and a pharmaceutical agent for myopia therapy. […] Considering FIG. 1A, it is observed that use of 0.01% Atropine which to date is the lowest concentration used for treatment of myopia in individuals, increases the photopic pupillary diameter by approximately 1 mm. Increasing the concentration to anywhere from 0.025% to 0.1% Atropine, increases the photopic pupil size from about 2 mm to about 3 mm. With the highest concentration of 0.5% Atropine, the increase in photopic pupil size was largest and at about 3 mm. An increase in pupil size increases aberrations of the eye. […] FIG. 1B illustrates the increase in higher order aberrations from 3rd to 6th order as determined by aberrometry for the myopic eye of an individual who has a distance refractive error of approximately −2.00 D. It is observed that there is a significant increase in aberrations with a larger pupil. An increase in the pupil size may result in a functional decrement in visual performance and one or more unwanted effects such as poorer visual performance, reduced contrast, blurred vision, increased glare and increased photophobia (sensitivity to light). […]

The test system of the next data set is myopia progression. Conditions: cited from earlier work.
For data set [2], the system named is amplitude of accommodation. The conditions noted are these: concentrations greater than 0.1% Atropine; children aged 6-12 years; cited from earlier work.

For `CN1[C@@H]2CC[C@H]1C[C@@H](OC(=O)C(CO)c1ccccc1)C2` (stereo partly shown) [Atropine], in data set [1], the “effective increase of the spherical aberration of the combined spectacle lens and eye system” value is “about +0.50 D”. Further, the “concentration dependence of efficacy” value in the data set with myopia progression (Atropine eye drops 0.01% to 1.0%) is “the higher the concentration, the greater the efficacy”. Moreover, the “efficacy in slowing myopia progression” value with myopia progression (used topically) is reported as “demonstrated a level of efficacy in slowing myopia progression”. In addition, the “reduction of amplitude of accommodation” value in data set [2] is on record as “reduce the amplitude of accommodation by more than half”.
